# Experiment: Blood glucose of a diabetic patient switched from Metformin to sublingual Exenatide tablet
# Assay type: in vivo, human
# Details: one diabetic patient; Exenatide 20 μg sublingual tablet once a day; FIGS. 1 and 2
# Procedure: A diabetic patient who was undergoing treatment with Metformin switched to once a day treatment with a slow release 20 μg Exenatide sublingual tablet prepared in accordance with Example 2. The fasting glucose and plasma glucose levels were measured and are depicted in FIGS. 1 and 2.
structure (smiles),measurement,value
CN(C)C(=N)N=C(N)N [Metformin],blood glucose level / profile (fasting and 2 hours after a meal),erratic and difficult to control

# — patent US8951566B2, “Process for preparing products comprising stabilised actives and compositions comprising same” (priority 2011, dated 2015)
